US8211877B2, “Compounds, compositions and methods for preventing neurodegeneration in acute and chronic injuries in the central nervous system” (Neurotech Pharmaceuticals Co., Ltd., priority 2000, dated 2012)

Key:
[1] = test system: Mouse cortical cell cultures; assay: NMDA-induced neuronal death in cortical cell cultures (LDH release); assay type: cell-based; details: 300 μM NMDA 10 min
Protocol: (§1) Primary cortical cell cultures from embryonic mice were prepared and used to examine neuroprotective action of compounds. Mouse cortical cell culture system has been extensively used to study mechanisms and pharmacological intervention of neuronal death in neurological diseases. In brief, mouse cerebral cortices were removed from brains of the 15 day-old-fetal mice, in accordance with a protocol approved by our institutional animal care committee. The neocortices were gently triturated and plated on 24 well plates (5 hemispheres/plate) precoated with 100 μg/ml poly-D-lysine and 4 μg/ml laminin. Plating media consist of Eagles minimal essential media (MEM, Earles salts, supplied glutamine-free) supplemented with 5% horse serum, 5% fetal bovine serum, 2 mM glutamine, and 21 mM glucose. Cultures were maintained at 37° C. in a humidified 5% CO2 atmosphere. After 7 days in vitro (DIV 7), cultures were shifted into a growth medium identical to the plating medium but lacking fetal serum. At DIV 7-9, 10 mM cytosine arabinofuranoside was included to halt overgrowth of glia. Mixed cultures of neurons and glia were then fed twice a week.
(§2) The percent neuronal death was normalized to the mean LDH value released 24 hr after continuous exposure 500 μM NMDA (=100) or a sham control (=0).
(§3) The neuroprotective action of 5-amino salicylic acid (AS) was examined in primary cortical cell cultures. Mouse cortical cell cultures (DIV 12-14) were exposed to 300μ M NMDA for 10 min (1a), continuously to 50μ M Fe^2+ (1b), or 300μ M Zn^2+ for 30 min (1c), alone or with inclusion of 10-300μ M 5-amino salicylic acid (AS). Neuronal death was analyzed 24 hr later by measuring levels of LDH released into the bathing medium, mean±SEM (n=9-12 (1a), n=4-8 (1b) or n=4 (1c) culture wells per condition), scaled to mean LDH efflux value 24 hr after sham wash (=0) and continuous exposure to 500μ M NMDA (=100).
(§4) Neuronal death was analyzed 24 hr later by measuring levels of LDH released into the medium, meant SEM (n=7-8 (2a), n=3-6 (2b), n=4 (2c), or n=4 (2d) culture wells per condition). FIG. 2. indicates significant difference from relevant control, at p<0.05 using ANOVA and Student-Neuman-Keuls test.
(§5) 5-(pentafluorobenzyl)amino salicylic acid (PBAS) was synthesized and tested against neuronal injuries. Mouse cortical cell cultures (DIV 12-14) were exposed to 300μ M NMDA for 10 min (8a), continuously to 50μ M Fe^2+ (8b) or 10 mM BSO (8c), or 300μ M Zn^2+ for 30 min (8d), alone or with inclusion of indicated doses of 5-(pentafluorobenzyl)amino salicylic acid (PBAS). Neuronal death was analyzed 24 hr later by measuring levels of LDH released into the medium, mean t SEM (n=11-16 (8a), n=3-6 (8b), n=4-11 (8c), or n=12 (8d) culture wells per condition).
(§6) Mouse cortical cell cultures (DIV 12-14) were exposed to 300μ M NMDA for 10 min (11a) or continuously to 50μ M Fe^2− (11b), alone or with inclusion of indicated doses of 5-(4-nitrobenzyl)-N-acetylamino-2-acetoxy ethylbenzoate (NNAAE). Neuronal death was analyzed 24 hr later by measuring levels of LDH released into the medium, mean±SEM (n=10-12 (11a), n=7-8 (11b), or n=4 (11c) culture wells per condition).
(§7) Mouse cortical cell cultures (DIV 12-14) were exposed to 300μ M NMDA for 10 min (15a) or continuously to 50μ M Fe^2− (15b), alone or with inclusion of indicated doses of 5-[3-(4-nitrophenyl)-n-propyl]aminosalicylic acid (NPPAA). Neuronal death was analyzed 24 hr later by measuring levels of LDH released into the medium, mean±SEM (n=4 (15a) or n=3-8 (15b) culture wells per condition).

[2] = test system: Mouse cortical cell cultures; assay: Fe2+-induced free radical neurotoxicity in cortical cell cultures (LDH release); assay type: cell-based; details: for Protection against free radical neurotoxicity compared with parent compound: comparison with BAS or NBAS
Protocol: as §1, §2, §3, §4, §5, §6, §7

[3] = test system: Mouse cortical cell cultures; assay: Zn2+ neurotoxicity in cortical cell cultures (LDH release); assay type: cell-based; details: 300 μM Zn2+ 30 min
Protocol: as §1, with “Cultures were maintained at 37° C. in a humidified 5% CO2 atmosphere. After 7 days in vitro (DIV 7), cultures were shifted into a growth medium identical to the plating medium but lacking fetal serum. At DIV 7-9, 10 mM cytosine arabinofuranoside was included to halt overgrowth of glia. Mixed cultures of neurons and glia were then fed twice a week.” left out
The neuroprotective action of 5-amino salicylic acid (AS) was examined in primary cortical cell cultures. […] Neuronal death was analyzed 24 hr later by measuring levels of LDH released into the bathing medium, mean±SEM (n=9-12 (1a), n=4-8 (1b) or n=4 (1c) culture wells per condition), scaled to mean LDH efflux value 24 hr after sham wash (=0) and continuous exposure to 500μ M NMDA (=100).
(§8) Neuronal death was analyzed 24 hr later by measuring levels of LDH released into the medium, meant SEM (n=7-8 (2a), n=3-6 (2b), n=4 (2c), or n=4 (2d) culture wells per condition). […]

[4] = Anti-oxidant effect: decrease in DPPH absorption at 517 nm; assay type: biochemical; details: for A517 nm (DPPH): 100 uM DPPH in ethanol, 30 min, mean±SEM
Protocol: To examine anti-oxidant effect, DPPH (2,2-diphenyl-1-picryl-hydrazyl radical), a stable free radical, was dissolved in ethanol to make a 100μ M solution. A compound was reacted with DPPH or ethanol. After incubation for 30 min, relative decrease in DPPH absorption at 517 nm was measured by a spectrophotometer.
AS or trolox was reacted with 100 uM DPPH dissolved in ethanol for 30 min. Anti-oxidant property was analyzed by measuring changes in the level of DPPH at 517 nm, mean±SEM (n=3 test tubes per condition), after subtracting background value resulting from ethanol alone.
Anti-oxidant property was analyzed by measuring changes in DPPH at 517 nm, mean±SEM (n=3 test tubes per condition), after subtracting background value resulting from ethanol alone.
NBAS was reacted with 100 uM DPPH dissolved in ethanol for 30 min. Anti-oxidant property was analyzed by measuring changes in DPPH at 517 nm, mean±SEM (n=3 test tubes per condition), after subtracting background value resulting from ethanol alone.
PBAS was reacted with 100 uM DPPH dissolved in ethanol for 30 min. Anti-oxidant property was analyzed by measuring changes in DPPH at 517 nm, mean±SEM (n=3 test tubes per condition), after subtracting background value resulting from ethanol alone.
NBAS derivatives (100μ M for each) were reacted with 100 μM DPPH dissolved in ethanol for 30 min. Anti-oxidant property was analyzed by measuring changes in DPPH at 517 nm, meant SEM (n=3 test tubes per condition), after subtracting background value resulting from ethanol alone.

[5] = test system: Mouse cortical cell cultures; assay: BSO-induced free radical neurotoxicity in cortical cell cultures (LDH release); assay type: cell-based; details: 10 mM BSO continuously; compound 1 μM
Protocol: as §1, with “After 7 days in vitro (DIV 7), cultures were shifted into a growth medium identical to the plating medium but lacking fetal serum. At DIV 7-9, 10 mM cytosine arabinofuranoside was included to halt overgrowth of glia. Mixed cultures of neurons and glia were then fed twice a week.” left out
as §8
5-(pentafluorobenzyl)amino salicylic acid (PBAS) was synthesized and tested against neuronal injuries. […] Neuronal death was analyzed 24 hr later by measuring levels of LDH released into the medium, mean t SEM (n=11-16 (8a), n=3-6 (8b), n=4-11 (8c), or n=12 (8d) culture wells per condition).

[6] = 50 μM Fe2+ continuously, compound 1 μM
[7] = 50 μM Fe2+ continuously, compound 10 μM

## Nc1ccc(O)c(C(=O)O)c1 [AS, 5-amino salicylic acid, reference compound]
[1]; compound 10-300 μM, LDH 24 hr later
  Effect on NMDA-induced neuronal death, in words: did not attenuate
[2]; 50 μM Fe2+ continuously 24 hr, compound 10-100 μM
  Effect on Fe2+-induced neuronal death, in words: dose-dependently prevented
[3]; compound 10-300 μM during and post Zn2+ treatment
  Effect on Zn2+-induced neuronal death, in words: not reduced

## O=C(Nc1ccc(O)c(C(=O)O)c1)c1ccc([N+](=O)[O-])cc1 [NBAA, 5-(4-nitrobenzoyl)aminosalicylic acid]
[4]; compound 100 μM
  A517 nm (DPPH): 0.42 ± 0.22
[1]; compound 30 μM
  Effect on NMDA-induced neuronal death, in words: significantly attenuated
[1]; compound 30-300 μM
  Effect on NMDA-induced neuronal death, in words: not further increased
[2]
  Protection against free radical neurotoxicity compared with parent compound: weaker than NBAS

## O=C(O)c1cc(NCCc2ccc([N+](=O)[O-])cc2)ccc1O [NPAA, 5-[2-(4-nitrophenyl)-ethyl]aminosalicylic acid]
[4]; compound 100 μM
  A517 nm (DPPH): 0.09 ± 0.01
[1]; compound 300 μM
  Effect on NMDA-induced neuronal death, in words: slightly reduced
[2]; [6]
  Effect on Fe2+-induced neuronal death, in words: complete blockade
[2]
  Protection against free radical neurotoxicity compared with parent compound: more effective than NBAS

## CCOC(=O)c1cc(NCc2ccc([N+](=O)[O-])cc2)ccc1O [NAHE, 5-(4-nitrobenzyl)amino-2-hydroxy ethylbenzoate]
[2]; [7]
  Effect on Fe2+-induced neuronal death, in words: blocked

## CCOC(=O)c1cc(N(Cc2ccc([N+](=O)[O-])cc2)C(C)=O)ccc1O [NNAHE, 5-(4-nitrobenzyl)-N-acetylamino-2-hydroxy ethylbenzoate]
[2]; [7]
  Effect on Fe2+-induced neuronal death, in words: blocked

## O=C(O)c1cc(NCc2c(F)c(F)c(F)c(F)c2F)ccc1O [PBAS, 5-(pentafluorobenzyl)aminosalicylic acid]
[4]; DPPH, a stable free radical
  Anti-oxidant property against DPPH, in words: reduced levels of DPPH
[4]; compound 1 μM
  A517 nm (DPPH): 1.07 ± 0.07
[4]; compound 3 μM
  A517 nm (DPPH): 1.01 ± 0.07
[4]; compound 10 μM
  A517 nm (DPPH): 0.71 ± 0.09
[4]; compound 30 μM
  A517 nm (DPPH): 0.21 ± 0.04
[4]; compound 100 μM
  A517 nm (DPPH): 0.15 ± 0.02
[4]; compound 300 μM
  A517 nm (DPPH): 0.16 ± 0.01
[1]; compound 300 μM, LDH 24 hr later
  Reduction of NMDA-induced neuronal death: ~65%
[1]; compound 100-1000 μM
  Effect on NMDA-induced neuronal death, in words: reduced NMDA-induced neuronal death in a dose-dependent manner
[1]; compound up to 1 mM
  Effect on NMDA-induced neuronal death, in words: completely blocked
[2]; [6]
  Effect on Fe2+-induced neuronal death, in words: significantly reduced
[2]; 50 μM Fe2+ continuously, compound 3 μM
  Effect on Fe2+-induced neuronal death, in words: near completely blocked
[5]
  Effect on BSO-induced neuronal death, in words: blocked
[3]; compound 100-300 μM
  Effect on Zn2+-induced neuronal death, in words: attenuated

## O=C(O)c1cc(NCCCc2ccc([N+](=O)[O-])cc2)ccc1O [NPPAA, 5-[3-(4-nitrophenyl)-n-propyl]aminosalicylic acid]
[4]; compound 100 μM
  A517 nm (DPPH): 0.09 ± 0.02
[1]; compound 300 μM
  Effect on NMDA-induced neuronal death, in words: slightly reduced
[2]; [6]
  Effect on Fe2+-induced neuronal death, in words: complete blockade
[2]
  Protection against free radical neurotoxicity compared with parent compound: more effective than NBAS

## CCOC(=O)c1cc(N(Cc2ccc([N+](=O)[O-])cc2)C(C)=O)ccc1OC(C)=O [NNAAE, 5-(4-nitrobenzyl)-N-acetylamino-2-acetoxy ethylbenzoate]
[2]; [7]
  Effect on Fe2+-induced neuronal death, in words: blocked

## Cc1c(C)c2c(c(C)c1O)CCC(C)(C(=O)O)O2 (stereo not drawn) [Trolox, reference compound]
[4]; compound 3 μM
  A517 nm (DPPH): 1.08 ± 0.1
[4]; compound 10 μM
  A517 nm (DPPH): 0.89 ± 0.08
[4]; compound 30 μM
  A517 nm (DPPH): 0.39 ± 0.06
[4]; compound 100 μM
  A517 nm (DPPH): 0.05 ± 0.01
[4]; compound 300 μM
  A517 nm (DPPH): 0.03 ± 0.01

## O=C(O)c1cc(NCc2ccc([N+](=O)[O-])cc2)ccc1O [NBAS, 5-(4-nitrobenzyl)aminosalicylic acid]
[4]; compound 10 μM
  A517 nm (DPPH): 0.37 ± 0.1
[4]; compound 30 μM
  A517 nm (DPPH): 0.04 ± 0.01
[4]; compound 100 μM
  A517 nm (DPPH): 0.04 ± 0.00
[4]; compound 300 μM
  A517 nm (DPPH): 0.04 ± 0.00

## O=C(O)c1cc(NS(=O)(=O)c2ccc([N+](=O)[O-])cc2)ccc1O [NBSAA, 5-(4-nitrobenzenesulfonyl)aminosalicylic acid]
[4]; compound 100 μM
  A517 nm (DPPH): 0.15 ± 0.05
[1]; compound 300 μM
  Effect on NMDA-induced neuronal death, in words: markedly reduced
[1]; compound 30-300 μM
  Effect on NMDA-induced neuronal death, in words: attenuated NMDA neurotoxicity in a dose-dependent manner
[2]
  Protection against free radical neurotoxicity compared with parent compound: weaker than NBAS
